The results in this text go back to patent publication US20150192589A1, “METHOD USING FLUORESCENT TURN-ON PROBES FOR CELL-SPECIFIC DETECTION” (Agency for Science, Technology and Research, priority 2014, published 2015).

A word on the cell viability: it is a read-out of living cells in per cent, often relative to untreated cells. Low readings indicate a greater loss of cells, high ones better survival.

One data set concerns β-galactosidase. As to the kind of experiment: Hydrolysis of probe by β-galactosidase (fluorescence turn-on). The class given is biochemical. The following applies: KH2PO4 buffer pH 4.5, 30° C., excitation 365 nm, emission 542 nm. On the procedure: Excited at 365 nm. Fluorescence intensity was measured at 542 nm.
After reaction of the probe with β-galactosidase, compound 9 is obtained.

The test system of data set [1] is esterase. Nature of the data set: Effect of esterase inhibitor on esterase activity (Lyso-1 fluorescence readout). Type of data set: biochemical. The following applies: Lyso-1 10 μM, esterase 0.50 U mL^−1. How it is done:
(§1) For example, the addition of 0.1 mM AEBSF causes a fluorescence decrease in 10% at 532 nm compared with that without AEBSF. The higher concentrations of AEBSF such as 0.4 and 1.0 mM lead to larger fluorescence decrease of 40% and 65%, respectively. […] Thus, the probe Lyso-1 has a use to screen inhibitors of esterase.

The subject of a further data set is esterase in MCF-7 cells. Nature of the data set: Esterase activity in living cells by Lyso-1 fluorescence imaging after inhibitor pretreatment. Type of data set: cell-based. The following applies: MCF-7 cells pretreated with 0.4 mM. How it is done:
as §1

Data set [2] relates to esterase. As to the kind of experiment: Selectivity of Lyso-1 fluorescence response, esterase versus interference substances. Type of data set: biochemical. The following applies: Lyso-1 10 μM; esterase 0.50 U mL^−1 vs MgCl2, CaCl2, vitamin C, H2O2, BO3−, lysozyme, cathepsin B; PBS pH 7.4, 37° C.
The test system of data set [3] is lysosomal esterase in MCF-7 cells. As to the kind of experiment: Real-time fluorescence imaging of lysosomal esterase activity. Type of data set: cell-based. On the procedure:
As the incubation time elapses, the fluorescence intensity increases quickly which reaches a maximum at 8 min. The real-time fluorescence images shown in FIG. 12 indicate that the probe is non-fluorescent in the cell culture media.
[…] The intensity images of Lyso-1 were recorded with the emission in the range of 515-560 nm. Excitation wavelength: 405 nm.

In data set [4] the test system is esterase. As to the kind of experiment: Fluorescence response of Lyso-1 upon incubation with esterase. Type of data set: biochemical. How it is done:
The measurements were performed in 10 mM PBS (pH 7.4) with λex/em=356/532 nm.
For esterase at 0.50 U mL^−1, the fluorescence increase could reach a plateau in 15 min, which is sigmoidal in shape due to the two-stepwise sequential hydrolysis of Lyso-1 to 2. The fluorescence could only be fully generated after the two-step reaction completed and formation of intramolecular hydrogen bonds. […] The detection limit (3 S/m, in which S is the standard deviation of blank measurements, and m is the slope of the linear equation) is determined to be 2.4×10-3 U mL^−1.
(§2) The UV-vis absorption spectra were obtained using UV-vis spectrometer (Shimadzu, UV-1700, Japan). PL measurements were carried out on a Perkin-Elmer LS-55 equipped with a xenon lamp excitation source and a Hamamatsu (Japan) 928 PMT, using 90° angle detection for solution samples. The cells were imaged by fluorescence microscope (Nikon Al Confocal microscope). The time-dependence fluorescence scans of Lyso-1 were conducted with microplate reader (TECAN). ^1H and ^13C NMR spectra were measured on a Bruker ARX 400 NMR spectrometer. The molecular mass was acquired using ion trap-time-of-flight mass spectrometry (MS-IT-TOF) (Shimadzu).

Data set [5] in a line: Photostability by continuous confocal scanning of stained cells. The following applies: approximately 8 min continuous confocal scanning, stained MCF-7 cells; Lyso-1 1 μM, LysoTracker Red 50 nM. Type of data set: physicochemical. On the procedure: FIGS. 10A-10E show (FIG. 10E) Signal loss (%) of fluorescent emission of Lyso-1 (1 μM) and LysoTracker® Red (50 nM) with increasing time. Excitation wavelength: 405 nm (for Lyso-1) and 560 nm (for LysoTracker® Red); emission filter: 515-560 nm (for Lyso-1) and 581-688 nm (for LysoTracker® Red); (FIGS. 10A-10D) fluorescent images of living MCF-7 cells stained with Lyso-1(1 μM) and LysoTracker® Red (50 nM) at 0 and 5 min.
It has been shown that the signal loss of Lyso-1 is less than 20% in approximately 8 min. In contrast, LysoTracker® Red lost almost approximately 70% of its fluorescence signal.
For Photostability study, MCF-7 cells were stained with 1.0 μM Lyso-1 and LysoTracker® Red for 1 h at 37° C. under 5% CO2. The changes of fluorescence intensity with scan time were determined by CLSM (Zeiss LSM 410, Jena, Germany).
Excitation wavelength: 405 nm (for Lyso-1, 1% laser power) and 560 nm (for LysoTracker® Red, 18% laser power); emission filter: 515-560 nm (for Lyso-1) and 581-688 nm (for LysoTracker® Red). The data were obtained from replicate experiments (n=3).

The test system of a further data set is lysosomes of MCF-7 cells. Nature of the data set: In situ imaging of lysosomal esterase / colocalization with LysoTracker Red. The class given is cell-based. How it is done:
FIGS. 9A-9H show the colocalization imaging of MCF-7 cells stained with 1.0 μM Lyso-1 and 50 nM LysoTracker®-red for 30 min at 37° C. (FIG. 9A and FIG. 9E) Bright-field image. (FIG. 9B and FIG. 9F) Confocal image from Lyso-1 on channel 1 (λex=405 nm, λem=515-560 nm). (FIG. 9C and FIG. 9G) Confocal image from LysoTracker® Red on channel 2 (λex=559 nm, λem=585-610 nm). (FIG. 9D and FIG. 9H) Merged image of channels 1 and 2. Scale bar=20 μm.
A discrete labeling pattern that matched the distribution of lysosomes was obtained using Lyso-1 (FIG. 9a-d). […] To verify that the probes can selectively target lysosomes, the probe 6 without of lysosome targeting morpholines was also tested for cell imaging as a comparison. […] These experiments clearly verified that Lyso-1 can selectively target lysosome.
MCF-7 cells were seeded at a density of 2×10^4/well in the chamber (LAB-TEK, Chambered Coverglass System) and grown for 18 h at 37° C. in a humidified 5% CO2 incubator. The cells were washed twice with 1×PBS buffer and 0.3 mL fresh serum-free medium containing 1.0 μM Lyso-1 solution was then added to the chamber.
For co-staining between Lyso-1 and LysoTracker® Red, the MCF-7 cells were first incubated with 1.0 μM Lyso-1 solution for 2 h, and then the cells were rinsed and incubated in the medium containing 100 nM Lyso-tracker Red for 1 h.
Lyso-1 was excited at 405 nm (1% laser power) and the fluorescence was collected at 515-560 nm; LysoTracker® Red was excited at 560 nm (18% laser power) and fluorescence was collected at 581-688 nm.

Data set [6] deals with MCF-7 breast cancer cells. Nature of the data set: Cell viability by MTT assay. Type of data set: cell-based. The following applies: 1, 2, 4, 8, or 16 μM for 24 h. On the procedure: The samples were incubated with 1, 2, 4, 8, or 16 μM Lyso-1 for 24 h, and the cell viabilities are close to 100% under the testing conditions, indicative of low cytotoxicity of the probe.
MCF-7 cancer cells were seeded in 96-well plates at a density of 4×10^4 cells/mL. After 24 h incubation, the cells were exposed to a series of doses of the probe Lyso-1 at 37° C. After the designated time intervals, the sample wells were washed twice with 1×PBS buffer and freshly prepared MTT solution (0.5 mg/mL, 100 μL) in culture medium was added into each sample well. The MTT medium solution was carefully removed after 3 h incubation in the incubator for the sample wells, whereas the control wells without addition of MTT solution were washed twice with 1×PBS buffer. DMSO (100 μL) was then added into each well and the plate was gently shaken for 10 min at room temperature to dissolve all the precipitates formed. The absorbance of individual wells at 570 nm was then monitored by the microplate Reader. The absorbance of MTT in the sample well was determined by the differentiation between the absorbance of the sample well and that of the respective control well. Cell viability was expressed by the ratio of the absorbance of MTT in the sample wells to that of the cells incubated with culture medium only.
On the technique in general: Tetrazolium dyes change colour on reduction, which living cells bring about.

The next data set concerns mitochondria. Nature of the data set: Mitochondria imaging. Type of data set: cell-based. On the procedure: FIGS. 30A-30C show Colocalization imaging of Hela cells stained with 5.0 μM MitoGreen-2 and 50 nM MitoTracker®-red.
MitoGreen-1 and MitoGreen-2 can be easily modified by adding further reactive groups to detect certain enzymes or bioactive molecules.

A short description of data set [7]: Photoluminescence / AIE properties in solvent-water mixtures. The class given is physicochemical.
Description: At ˜532 nm, there is almost no fluorescence for Lyso-1, whereas a strong emission with a 200-fold enhancement is observed for 2 from the keto tautomer ([…]). The weak emission at a short wavelength (λmax=˜441 nm) is from the enol tautomer of 2 (FIG. 1). It is noted that there is almost no overlap between the absorption and emission spectrum for salicyladazine dye 2, which is highly desirable for imaging applications.
With gradual addition of water into THF from fw=0 to 80 vol %, the emission intensity keeps slow increasing. […] At fw=99 vol %, a 14-fold enhancement of emission has been observed as compared to that in THF, showing an obvious AIE effect.
as §2

In the case of `OCC1O[C@@H](Oc2ccccc2/C=N/N=C/c2ccccc2OC2O[C@H](CO)[C@H](O)[C@H](O)[C@H]2O)C(O)C(O)C1O` (stereo in doubt) [β-gal-1, (2S,3S,4R,5S,6S)-2-(hydroxymethyl)-6-(2-((E)-((E)-(2-(((2R,3R,4S,5R,6R)-3,4,5-trihydroxy-6-(hydroxymethyl)tetrahydro-2H-pyran-2-yl)oxy)benzylidene)hydrazono)methyl)phenoxy)tetrahydro-2H-pyran-3,4,5-triol], the “fluorescence upon reaction with β-galactosidase” value in the data set on β-galactosidase is listed as “leads to fluorescence”.
As to `NCCc1ccc(S(=O)(=O)F)cc1` [AEBSF, 4-(2-aminoethyl)benzenesulfonyl fluoride], the entries for the “fluorescence decrease at 532 nm compared with that without AEBSF” value in the data set on esterase [1] (0.1 mM AEBSF), in the data set with esterase [1] (0.4 mM AEBSF) and in the data set with esterase [1] (1.0 mM AEBSF) were 10%, 40% and 65%, respectively. Moreover, the “Lyso-1 fluorescence in pretreated cells” value in the data set with esterase in MCF-7 cells is “obviously decreased fluorescence”.
Consider `CC(=O)Oc1cc(OCCCCN2CCOCC2)ccc1/C=N/N=C/c1ccc(OCCCCN2CCOCC2)cc1OC(C)=O` [Lyso-1, ((1E,1′E)-hydrazine-1,2-diylidenebis(methanylylidene))bis(3-(4-morpholinobutoxy)-6,1-phenylene) diacetate], for which the “fluorescence induced by esterase relative to interferences (times brighter)” value with esterase [2] is listed as 70-200 times. For the same molecule, the “incubation time at which fluorescence intensity reaches a maximum” value in [3] (1.0 μM, room temperature) is 8 min. In addition, in the data set on esterase [4] (control without esterase, same period of time, PBS pH 7.4), the “fluorescence change without esterase (stability of the probe)” value is on record as “hardly changes”. Besides, the “time for fluorescence increase to reach a plateau” value in the data set with esterase [4] (esterase 0.50 U mL^−1, Lyso-1 10 μM, 10 mM PBS pH 7.4) amounted to 15 min. Further, the “signal loss of fluorescent emission” value in [5] is “less than 20%”. Besides, the “overlap between fluorescence images of probe and LysoTracker Red” value in the data set with lysosomes of MCF-7 cells (MCF-7 cells, 1.0 μM probe, no washing) is “excellent overlap”. For the same molecule, the cell viability in [6] is on record as roughly 100%.
On to `CN(C)CCNC(=O)CCc1ccc2n1[B-](F)(F)[N+]1=C(c3ccc[nH]3)C=CC1=C2` [LysoTracker® Red, reference compound], for which the “signal loss of fluorescent emission” value in data set [5] is “approximately 70%”.
Regarding `Oc1cc(OCCCCCC[P+](c2ccccc2)(c2ccccc2)c2ccccc2)ccc1/C=N/N=C/c1ccc(OCCCCCC[P+](c2ccccc2)(c2ccccc2)c2ccccc2)cc1O.[Br-].[Br-]` [MitoGreen-1, (((((1E,1′E)-hydrazine-1,2-diylidenebis(methanylylidene))bis(3-hydroxy-4,1-phenylene))bis(oxy))bis(hexane-6,1-diyl))bis(triphenylphosphonium) bromide], in the data set on mitochondria, the binding to mitochondria result is on record as “bind well to mitochondria”.
The same measure, in the same setting: the value for `Oc1cc(OCCCCCC[n+]2ccccc2)ccc1/C=N/N=C/c1ccc(OCCCCCC[n+]2ccccc2)cc1O.[Br-].[Br-]` [MitoGreen-2, 1,1′-(((((1E,1′E)-hydrazine-1,2-diylidenebis(methanylylidene))bis(3-hydroxy-4,1-phenylene))bis(oxy))bis(hexane-6,1-diyl))bis(pyridin-1-ium) bromide] was “bind well to mitochondria”.
As for `Oc1cc(OCCCCN2CCOCC2)ccc1/C=N/N=C/c1ccc(OCCCCN2CCOCC2)cc1O` [compound 2, 6,6′-((1E,1′E)-hydrazine-1,2-diylidenebis(methanylylidene))-bis(3-(4-morpholinobutoxy)-phenol)], the “quantum yield of keto tautomer emission (printed "0=")” value in data set [7] (10 μM in DMSO/water (1:99 v/v), ~532 nm) stood at 9.6%. Moreover, in data set [7] (10 μM in DMSO/water (1:99 v/v), λex=356 nm, keto tautomer emission), the “emission enhancement at ~532 nm compared with Lyso-1” value was determined as 200 fold. Moreover, the “enhancement of emission at fw=99 vol % compared to that in THF (AIE effect)” value in data set [7] (THF/water, 10 μM, excitation 356 nm) is reported as 14 fold.
On to `CC(=O)Oc1cc(OCCCCBr)ccc1/C=N/N=C/c1ccc(OCCCCBr)cc1OC(C)=O` [compound 6, ((1E,1′E)-hydrazine-1,2-diylidenebis(methanylylidene))bis(3-(4-bromobutoxy)-6,1-phenylene) diacetate], for which the “time after which probe turns on in the entire cells” value in data set [3] (5 μM) worked out at 2 h. Moreover, the fluorescence of cells result with lysosomes of MCF-7 cells (MCF-7 cells incubated with 1.0 μM for 2 h) is given as “Very weak fluorescence”. In addition, in the data set with lysosomes of MCF-7 cells (MCF-7 cells incubated with 5.0 μM), the “staining pattern of cells” value was “non-specific staining of the entire cell”.
